Reference: patent US20210008015A1, “HEPATOPROTECTENT PHENYLBUTYRATYRATE DRUG CONJUGATES, AND THEIR COMPOSITIONS PREPARATION AND METHODS OF USE THEREOF” (priority 2019, published 2021)
Values joined by “and” are separate entries in the source; they are usually repeats but may differ in a detail not shown here. Identical values can stand only once.

How the values were obtained:
[1] = system: formaldehyde pain model; assay: In vivo comparative pain-relieving model study (formaldehyde pain model); design: species or system Rabbits; conditions: Test 300 mg/kg orally, reference 150 mg/kg; for Amplitude of rubbing activity, Mean / Amplitude of rubbing activity, Sum: group of 4 rabbits; for Amplitude of rubbing activity, Mean / Amplitude of rubbing activity, Sum / Amplitude of rubbing activity: 60 min post dose of formalin; for No. of rubbings / Amplitude of rubbing activity: individual rabbit; for No. of rubbings: 60 min post dose of formalin (2.5%, 0.1 ml into paw)
Experimental: 12 Rabbits (M&F) (formaldehyde pain model 6 hr) were divided into 3 groups 4 rabbits in each group, Group-A Test (Acetaminophen phenylbutyrate) and Group-B reference (Acetaminophen) and Group-C Control (placebo). Group-A 4 rabbits (2M & 2F) were treated with Test 300 mg/kg orally given and 150 mg/kg; reference compound given to Group-B 4 rabbits (2M & 2F) and placebo given to group-C after 15 min each rat was dosed with 2.5% formalin in saline solution 0.1 ml was injected into middle of paw, and monitor for number of licking or scratching's happened with each animal in all groups and compared each group with other in the below table.

[2] = system: yeast-induced pyrexia; assay: In vivo comparative antipyretic effect study (Baker's yeast induced pyrexia); design: species or system SD rats; conditions: for Effect on yeast-induced pyrexia (rise in temperature), 3 hours / Effect on yeast-induced pyrexia (rise in temperature), 6 hours / Effect on yeast-induced pyrexia (rise in temperature), 9 hours: SD rats, Test 300 mg/kg orally, reference 150 mg/kg, Mean ± SD, in °C (unit assumed)
Experimental: The in vivo pharmacological study conducted the anti-pyretic activity of acetaminophen Phenylbutyrate (APPB) formulations in SD rats against yeast induced pyrexia 12 rats (M&F) (Baker's yeast induced antipyretic model 24 hr) After measuring basal TR of the animals, they were injected with a pyrogenic dose of Baker's yeast (0.135 g/kg, i.p.). TR changes were recorded every hour up to 4 h. […] Animals were randomly divided into three groups 4 rats in each group, Group-A Test (Acetaminophen phenylbutyrate) and Group-B reference (Acetaminophen) and Group-C Control (placebo). Group-A 4 rats (2M & 2F) were treated with Test 300 mg/kg orally given and 150 mg/kg reference compound given to Group-B 4 rats (2M & 2F) and placebo given to group-C. From the time baker yeast injection body temperature will rise keep monitor every 30-60 min once and record. And after treatment (time after treatment with test, reference and placebo) the body temperature was monitored rectally, for next 6 hr (0, 0.5, 1.0, 1.5, 2, 3, 4, and 6) using digital thermometer which can capture 0.1 F body temp ad recorded. […] Yeast injection in experimental animals caused significant rise in body temperature at the various time intervals as recorded rectally with the help of a tele-thermometer.

[3] = system: Sprague Dawley (SD) rats; assay: In vivo safety and dose ranging study

Compound | Amplitude of rubbing activity, Mean [1] [s] | Amplitude of rubbing activity, Sum [1] [s] | No. of rubbings [1] | Amplitude of rubbing activity [1] | attenuation of rise in temperature, in words ([2]; 6 and 9 h after yeast injection, in comparison to placebo control group) | attenuation of rise in temperature, in words ([2]; 3 h after yeast injection) | Effect on yeast-induced pyrexia (rise in temperature), 3 hours [2] | Effect on yeast-induced pyrexia (rise in temperature), 6 hours [2] | Effect on yeast-induced pyrexia (rise in temperature), 9 hours [2] | treatment related clinical signs ([3]; 500, 1000 and 1500 mg/kg/per day orally for 5 days, M&F SD rats) | survival ([3]; 500, 1000 and 1500 mg/kg/per day orally for 5 days, observation for one week after treatment) | overall safety conclusion ([3]; 500-1500 mg/kg/per day orally for 5 days) | attenuation of rise in temperature, in words ([2]; all time intervals)
CC(=O)N(C(=O)CCCc1ccccc1)c1ccc(O)cc1 [APPB, N-(4-phenylbutanoyl)-N-(4-hydroxyphenyl)acetanyide] | 3.62 | 36.19 | 4 and 3 and 2 and 1 | 12.64 s and 11.84 s and 6.69 s and 5.02 s | attenuated the raise in temperature in a highly significant manner | significantly attenuated the rise in temperature | 1.21 ± 0.13 | 1.48 ± 0.08 | 1.83 ± 0.06 | No treatment related clinical signs were noticed | All group animals were survived | safe for prolonged use at higher doses | –
CC(=O)Nc1ccc(O)cc1 [Acetaminophen, N-(4-hydroxyphenyl)acetamide, reference compound] | 2.78 | 16.7 | 1 (2×) and 2 (2×) | 3.1 s and 6.7 s and 2.6 s and 4.3 s | – | – | 0.83 ± 0.08 | 1.31 ± 0.23 | 1.91 ± 0.14 | – | – | – | attenuated the rise in temperature to a significant extent at all time intervals
